Measured values taken from patent US5326882A, “Chemiluminescent 3-(substituted Adamant-2'-Ylidene) 1,2-dioxetanes” (Tropix, Inc., priority 1992, dated 1994).

Key:
Type in all cases: biochemical
[1] = target: T1, alkaline phosphatase (calf intestine; Biozyme) (Bos taurus, UniProt P19111); assay: Total dephosphorylation, chemiluminescence decay (Example XIII); conditions: 30° C., carbonate/bicarbonate buffer
T1 construct: purchased Biozyme; host or cells: calf intestine
Method: A comparison of the total luminescence emission from AMPPD and from the corresponding 1,2-dioxetanes whose adamant-2'-ylidene groups are monosubstituted with hydroxy (A and B isomers), chloro and bromo groups was made by carrying out total dephosphorylation experiments on each of these compounds.
An aqueous solution of the 1,2-dioxetane (4.0 mm) in 0.05M sodium carbonate/sodium bicarbonate containing 1 mM magnesium chloride was prepared and then equilibrated at 30° C. Ten μl of a 7.64×10M aqueous solution of alkaline phosphatase (calf intestine; Biozyme) was then added, and the chemiluminescence from the resulting solution was recorded using a Turner Model 20E luminometer (Turner Instruments; Sunnyvale, Calif.).
The rates of chemiluminescence decay for each of the five compounds in question, expressed in relative light units (RLU's) per minute, are given in the following table.

alkaline phosphatase [2] = target: T2, alkaline phosphatase (Bos taurus, UniProt P19111); assay: Chemiluminescent signal and signal:background with enhancer polymers (Example XVII)
T2 sequence (P19111 20-506 limits assumed): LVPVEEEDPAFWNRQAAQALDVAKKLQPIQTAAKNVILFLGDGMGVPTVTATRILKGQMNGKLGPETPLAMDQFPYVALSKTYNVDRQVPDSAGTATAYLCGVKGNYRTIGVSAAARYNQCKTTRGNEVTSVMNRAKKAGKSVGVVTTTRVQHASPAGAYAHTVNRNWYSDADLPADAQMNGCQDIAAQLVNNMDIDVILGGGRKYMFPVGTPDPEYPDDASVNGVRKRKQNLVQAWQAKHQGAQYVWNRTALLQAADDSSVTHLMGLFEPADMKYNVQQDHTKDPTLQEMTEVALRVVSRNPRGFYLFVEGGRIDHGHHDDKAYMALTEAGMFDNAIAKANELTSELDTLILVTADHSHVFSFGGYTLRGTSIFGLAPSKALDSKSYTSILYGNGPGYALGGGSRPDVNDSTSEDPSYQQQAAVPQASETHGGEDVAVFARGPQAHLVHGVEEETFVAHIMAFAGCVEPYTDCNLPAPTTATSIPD
Method: Four sets of three tubes each, each tube in each set containing 450 μl of a 0.4 mM aqueous solution of one of the four 1,2-dioxetanes being compared in 0.1M diethanolamine containing 1 mM magnesium chloride, 0.02% sodium azide and 0.1% of the enhancer polymer, pH 10.0 (substrate buffer) were prepared and the background signal from each tube measured using a Berthold LB 952T luminometer (Berthold Instruments; Wildbad, Federal Republic of Germany).
Next, 50 μl of an aqueous solution, 2.83×10^-12 M of alkaline phosphatase in 0.1M diethanolamine containing 1 mM magnesium chloride, 0.02% sodium azide, pH 10.0, (final enzyme concentration 2.83×10^-13 M) was added to each tube and the chemiluminescent signals were measured in the luminometer at 5 and 20 minutes. The intensity of the chemiluminescent signals and the signal: background ratios obtained for each of the four 1,2-dioxetanes in the presence of the enhancer polymers are shown in Table III below.
The enhancer polymers used, and the symbols for such polymers used in Table III, were the following: […]

alkaline phosphatase [3] = target: T2, alkaline phosphatase; assay: Alkaline phosphatase detection limits, LabSystems Luminoskan (Example XXV)
Method: The detection means for alkaline phosphatase with different chemiluminescent 1,2-dioxetane substrates were determined as follows: Duplicates of serial dilutions (1 to 3) of alkaline phosphates were incubated at room temperature with 0.4 mM dioxetane in 0.1 M diethanolamine, 1 mM MgCl2, pH 10.0, containing 1 mg/ml of either of the polymeric enhancers Enhancer 1 or Enhancer 2, in […].
Following either a 5 or a 20 minute incubation with a substrate, the chemiluminescence intensity was measured as a 5 second integrated Relative Light Units (RLU) and plotted as in FIG. 10. […] The alkaline phosphatase concentrations at twice background were used as the detection limits in Table 5.
The luminometer used in this example was LabSystems Luminoskan microtiter plate reader.

T1 sequence (P19111 20-506 limits assumed): as above

With `COC1(c2cccc(OP(=O)(O)O)c2)OOC12C1CC3CC2CC(Cl)(C3)C1` (stereo not shown) [Cl-AMPPD, disodium 3-(4-methoxyspiro-[1,2-dioxetane-3,2'-(5'-chloro)tricyclo[3.3.1.1^3,7]decan]-4-yl) phenyl phosphate] the “Total Decay Time” value [1] was 15 min, the “Decay Rate I” value ([1]; RLU's per minute) was 1.2 RLU's per minute and the “Decay Rate II” value ([1]; RLU's per minute) was 5.5 RLU's per minute. It also gave a S/N (alkaline phosphatase [2]; polymer BAEDM, 5 min) of 102.2, an SIGNAL (alkaline phosphatase [2]; polymer BAEDM, 5 min) of 9086.9 and a S/N (alkaline phosphatase [2]; polymer BAEDM, 20 min) of 193.3. For the same compound, the SIGNAL (alkaline phosphatase [2]; polymer BAEDM, 20 min) was 17185.4, the S/N (alkaline phosphatase [2]; polymer BAEDM, time 0) was 1.0 and the SIGNAL (alkaline phosphatase [2]; polymer BAEDM, time 0 (background, before enzyme)) was 88.9. The S/N (alkaline phosphatase [2]; polymer DAA TMQ, 5 min) was 125.1, the SIGNAL (alkaline phosphatase [2]; polymer DAA TMQ, 5 min) was 10328.7 and the S/N (alkaline phosphatase [2]; polymer DAA TMQ, 20 min) was 159.9. The SIGNAL (alkaline phosphatase [2]; polymer DAA TMQ, 20 min) was 13204.2, the S/N (alkaline phosphatase [2]; polymer DAA TMQ, time 0) was 1.0 and the SIGNAL (alkaline phosphatase [2]; polymer DAA TMQ, time 0 (background, before enzyme)) was 82.6. It also gave a S/N (alkaline phosphatase [2]; polymer DMQ TEQ, 5 min) of 514.6, an SIGNAL (alkaline phosphatase [2]; polymer DMQ TEQ, 5 min) of 39712.8 and a S/N (alkaline phosphatase [2]; polymer DMQ TEQ, 20 min) of 747.2. For the same compound, the SIGNAL (alkaline phosphatase [2]; polymer DMQ TEQ, 20 min) was 57658.0, the S/N (alkaline phosphatase [2]; polymer DMQ TEQ, time 0) was 1.0 and the SIGNAL (alkaline phosphatase [2]; polymer DMQ TEQ, time 0 (background, before enzyme)) was 77.2. It also gave an SIGNAL (alkaline phosphatase [2]; polymer EMERALD (sapphire and fluorescein), time 0 (background, before enzyme)) of 3434.0, a S/N (alkaline phosphatase [2]; polymer EMERALD, 5 min) of 583.2 and an SIGNAL (alkaline phosphatase [2]; polymer EMERALD, 5 min) of 400510.8. It also gave a S/N (alkaline phosphatase [2]; polymer EMERALD, 20 min) of 964.0, an SIGNAL (alkaline phosphatase [2]; polymer EMERALD, 20 min) of 662054.4 and a S/N (alkaline phosphatase [2]; polymer EMERALD, time 0) of 1.0. The S/N (alkaline phosphatase [2]; polymer MPB, 5 min) was 257.8, the SIGNAL (alkaline phosphatase [2]; polymer MPB, 5 min) was 22170.5 and the S/N (alkaline phosphatase [2]; polymer MPB, 20 min) was 306.5. For the same compound, the SIGNAL (alkaline phosphatase [2]; polymer MPB, 20 min) was 29133.9, the S/N (alkaline phosphatase [2]; polymer MPB, time 0) was 1.0 and the SIGNAL (alkaline phosphatase [2]; polymer MPB, time 0 (background, before enzyme)) was 86.0. For the same compound, the S/N (alkaline phosphatase [2]; polymer NONE, 5 min) was 47.9, the SIGNAL (alkaline phosphatase [2]; polymer NONE, 5 min, enzyme 2.83×10^-13 M) was 4083.6 and the S/N (alkaline phosphatase [2]; polymer NONE, 20 min) was 52.3. For the same compound, the SIGNAL (alkaline phosphatase [2]; polymer NONE, 20 min, enzyme 2.83×10^-13 M) was 4460.9, the S/N (alkaline phosphatase [2]; polymer NONE, time 0) was 1.0 and the SIGNAL (alkaline phosphatase [2]; polymer NONE, time 0 (background, before enzyme)) was 85.3. For the same compound, the S/N (alkaline phosphatase [2]; polymer S/TMQ(1:2), 5 min) was 46.7, the SIGNAL (alkaline phosphatase [2]; polymer S/TMQ(1:2), 5 min) was 3121.4 and the S/N (alkaline phosphatase [2]; polymer S/TMQ(1:2), 20 min) was 100.2. For the same compound, the SIGNAL (alkaline phosphatase [2]; polymer S/TMQ(1:2), 20 min) was 6696.9, the S/N (alkaline phosphatase [2]; polymer S/TMQ(1:2), time 0) was 1.0 and the SIGNAL (alkaline phosphatase [2]; polymer S/TMQ(1:2), time 0 (background, before enzyme)) was 66.8. For the same compound, the S/N (alkaline phosphatase [2]; polymer S/TMQ(1:4), 5 min) was 93.9, the SIGNAL (alkaline phosphatase [2]; polymer S/TMQ(1:4), 5 min) was 5631.2 and the S/N (alkaline phosphatase [2]; polymer S/TMQ(1:4), 20 min) was 165.0. It also gave an SIGNAL (alkaline phosphatase [2]; polymer S/TMQ(1:4), 20 min) of 9957.4, a S/N (alkaline phosphatase [2]; polymer S/TMQ(1:4), time 0) of 1.0 and an SIGNAL (alkaline phosphatase [2]; polymer S/TMQ(1:4), time 0 (background, before enzyme)) of 60.0. For the same compound, the SIGNAL (alkaline phosphatase [2]; polymer SAPPHIRE (BDMQ), time 0 (background, before enzyme)) was 296.0, the S/N (alkaline phosphatase [2]; polymer SAPPHIRE, 5 min) was 371.6 and the SIGNAL (alkaline phosphatase [2]; polymer SAPPHIRE, 5 min) was 51584.5. For the same compound, the S/N (alkaline phosphatase [2]; polymer SAPPHIRE, 20 min) was 505.4, the SIGNAL (alkaline phosphatase [2]; polymer SAPPHIRE, 20 min) was 70161.6 and the S/N (alkaline phosphatase [2]; polymer SAPPHIRE, time 0) was 1.0. For the same compound, the SIGNAL (alkaline phosphatase [2]; polymer TBQ-FLUOR (TBQ and fluorescein), time 0 (background, before enzyme)) was 5882.7, the S/N (alkaline phosphatase [2]; polymer TBQ-FLUOR, 5 min) was 839.4 and the SIGNAL (alkaline phosphatase [2]; polymer TBQ-FLUOR, 5 min) was 987572.0. The S/N (alkaline phosphatase [2]; polymer TBQ-FLUOR, 20 min) was 1280.0, the SIGNAL (alkaline phosphatase [2]; polymer TBQ-FLUOR, 20 min) was 1505971.2 and the S/N (alkaline phosphatase [2]; polymer TBQ-FLUOR, time 0) was 1.0. The S/N (alkaline phosphatase [2]; polymer TBQ, 5 min) was 1249.6, the SIGNAL (alkaline phosphatase [2]; polymer TBQ, 5 min) was 148394.6 and the S/N (alkaline phosphatase [2]; polymer TBQ, 20 min) was 1763.9. The SIGNAL (alkaline phosphatase [2]; polymer TBQ, 20 min) was 209466.8, the S/N (alkaline phosphatase [2]; polymer TBQ, time 0) was 1.0 and the SIGNAL (alkaline phosphatase [2]; polymer TBQ, time 0 (background, before enzyme)) was 118.8. For the same compound, the S/N (alkaline phosphatase [2]; polymer TEQ, 5 min) was 397.0, the SIGNAL (alkaline phosphatase [2]; polymer TEQ, 5 min) was 26551.0 and the S/N (alkaline phosphatase [2]; polymer TEQ, 20 min) was 513.5. It also gave an SIGNAL (alkaline phosphatase [2]; polymer TEQ, 20 min) of 34467.2, a S/N (alkaline phosphatase [2]; polymer TEQ, time 0) of 1.0 and an SIGNAL (alkaline phosphatase [2]; polymer TEQ, time 0 (background, before enzyme)) of 67.1. For the same compound, the S/N (alkaline phosphatase [2]; polymer TMQ, 5 min) was 165.0, the SIGNAL (alkaline phosphatase [2]; polymer TMQ, 5 min) was 9941.0 and the S/N (alkaline phosphatase [2]; polymer TMQ, 20 min) was 226.4. The SIGNAL (alkaline phosphatase [2]; polymer TMQ, 20 min) was 13640.5, the S/N (alkaline phosphatase [2]; polymer TMQ, time 0) was 1.0 and the SIGNAL (alkaline phosphatase [2]; polymer TMQ, time 0 (background, before enzyme)) was 50.3. The “Alkaline phosphatase detection limit (at 2× background)” value (“Alkaline phosphatase detection limit” for short) (alkaline phosphatase [3]; SAPPHIRE II, 5 MINUTE INCUBATION) was 0.0008 pM, the “Alkaline phosphatase detection limit” value (alkaline phosphatase [3]; SAPPHIRE II, 20 MINUTE INCUBATION) was 0.00043 pM and the “Alkaline phosphatase detection limit” value (alkaline phosphatase [3]; SAPPHIRE, 5 MINUTE INCUBATION) was 0.0014 pM. For the same compound, the “Alkaline phosphatase detection limit” value (alkaline phosphatase [3]; SAPPHIRE, 20 MINUTE INCUBATION) was 0.0005 pM.
